Laboratory results: patent publication US9884818B2, “Sulphamoylpyrrolamide derivatives and the use thereof as medicaments for the treatment of hepatitis B” (Janssen Sciences Ireland UC, priority 2013, dated 2018)
pEC50: −log10 of the molar value.

How the values were obtained:
HBV [1] = experiment: Anti-HBV activity, HepG2.117 inducibly HBV producing cell line (Tet-off), intracellular HBV DNA by realtime PCR; assay type: cell-based; conditions: Hepatitis B virus, HepG2.117, 72 h, HepG2.117 cells, 3 days of treatment, intracellular HBV DNA; read-out: HepG2 117 EC50
[2] = Cytotoxicity in HepG2 cells, Resazurin viability assay; conditions: human, HepG2 cells, HepG2 4 days CC50 (μM), incubated for 4 days, Resazurin assay
HBV [3] = experiment: Anti-HBV activity, HepG2.2.15 stable transfected cell line, HBV DNA from secreted virions by realtime PCR; assay type: cell-based; conditions: Hepatitis B virus, HepG2.2.15, 144 h, HepG2.2.15 cells, 6 days of treatment, HBV DNA from secreted virions; read-out: HepG2 2.15 EC50

Compound	pEC50 (HBV [1])	CC50 at 4 days [2] [µM]	pEC50 (HBV [3])
C[C@@H](NS(=O)(=O)c1cn(C)c(C(=O)Nc2cc(Cl)c(F)c(C#N)c2)c1F)C(F)(F)F [Compound 313, N-(3-chloro-5-cyano-4-fluoro-phenyl)-3-fluoro-1-methyl-4-[[(1R)-2,2,2-trifluoro-1-methyl-ethyl]sulfamoyl]pyrrole-2-carboxamide]	7.30	> 25	7.70
C[C@@H](NS(=O)(=O)c1cn(C)c(C(=O)Nc2ccc(F)cc2C#N)c1Cl)C(F)(F)F [Compound 273, 3-chloro-N-(2-cyano-4-fluoro-phenyl)-1-methyl-4-[[(1R)-2,2,2-trifluoro-1-methyl-ethyl]sulfamoyl]pyrrole-2-carboxamide]	6.15	> 25	6.38
Cn1cc(S(=O)(=O)NC2(C(F)(F)F)CCC2)c(Cl)c1C(=O)Nc1ccc(F)c(C#N)c1 [Compound 221, 3-Chloro-N-(3-cyano-4-fluorophenyl)-1-methyl-4-{[1-(trifluoro-methyl)cyclobutyl]sulfamoyl}-1H-pyrrole-2-carboxamide]	8.22	> 25	8.15
C[C@@H](NS(=O)(=O)c1cn(C2CC2)c(C(=O)Nc2ccc(F)c(C#N)c2)c1Cl)C(F)(F)F [Compound 305, 3-chloro-N-(3-cyano-4-fluoro-phenyl)-1-cyclopropyl-4-[[(1R)-2,2,2-trifluoro-1-methyl-ethyl]sulfamoyl]pyrrole-2-carboxamide]	6.46	> 25	6.77
Cc1cc(NC(=O)c2cc(S(=O)(=O)N[C@@H](C)C(F)(F)F)cn2C)cc(F)c1F [Compound 104, N-(3,4-Difluoro-5-methylphenyl)-1-methyl-4-{[(1S)-2,2,2-trifluoro-1-methylethyl]sulfamoyl}-1H-pyrrole-2-carboxamide]	7.70	> 25	7.70
Cc1c(S(=O)(=O)N[C@H](C)C(F)(F)F)cn(C)c1C(=O)Nc1cc(F)c(F)c(Cl)c1 [Compound 202, N-(3-Chloro-4,5-difluorophenyl)-1,3-dimethyl-4-{[(1R)-2,2,2-trifluoro-1-methylethyl]sulfamoyl}-1H-pyrrole-2-carboxamide]	7.70	> 25	7.52
CCn1cc(S(=O)(=O)NC(C)C)cc1C(=O)Nc1ccc(F)c(C)c1 [Compound 29, 1-ethyl-N-(4-fluoro-3-methyl-phenyl)-4-(isopropylsulfamoyl)pyrrole-2-carboxamide]	6.68	> 25	6.82
[2H]c1c(F)c(F)c(F)c([2H])c1NC(=O)c1cc(S(=O)(=O)NC(C)(C)C)cn1C [Compound 71, 4-(tert-butylsulfamoyl)-N-(2,6-dideuterio-3,4,5-trifluoro-phenyl)-1-methyl-pyrrole-2-carboxamide]	6.89	> 25	7.00
Cn1cc(S(=O)(=O)NC2(C)COC2)c(F)c1C(=O)Nc1ccc(F)c(Cl)c1F [Compound 215, N-(3-Chloro-2,4-difluorophenyl)-3-fluoro-1-methyl-4-[(3-methyloxetan-3-yl)sulfamoyl]-1H-pyrrole-2-carboxamide]	8.00	> 25	7.70
Cc1cc(NC(=O)c2cc(S(=O)(=O)NC3(C)COC3)cn2C)ccc1F [Compound 5, N-(4-fluoro-3-methyl-phenyl)-1-methyl-4-[(3-methyloxetan-3-yl)-sulfamoyl]pyrrole-2-carboxamide]	7.70	> 25	7.52
Cc1cc(NC(=O)c2cc(S(=O)(=O)N[C@H]3CCOC3)cn2C)ccc1F [Compound 4, N-(4-fluoro-3-methyl-phenyl)-1-methyl-4-[[(3S)-tetrahydrofuran-3-yl]-sulfamoyl]pyrrole-2-carboxamide]	7.22	> 25	7.00
